Reference: ChEMBL document CHEMBL1131256, “Discovery of a novel series of potent and selective substrate-based inhibitors of p60c-src protein tyrosine kinase: conformational and topographical constraints in peptide design” (J Med Chem, 1998)

molecular target: Tyrosine-protein kinase Lyn (Homo sapiens, UniProt P07948); assay: Inhibition of Lyn kinase against 100 uM cdc2 substrate; details: not given
Sequence (P07948 whole entry): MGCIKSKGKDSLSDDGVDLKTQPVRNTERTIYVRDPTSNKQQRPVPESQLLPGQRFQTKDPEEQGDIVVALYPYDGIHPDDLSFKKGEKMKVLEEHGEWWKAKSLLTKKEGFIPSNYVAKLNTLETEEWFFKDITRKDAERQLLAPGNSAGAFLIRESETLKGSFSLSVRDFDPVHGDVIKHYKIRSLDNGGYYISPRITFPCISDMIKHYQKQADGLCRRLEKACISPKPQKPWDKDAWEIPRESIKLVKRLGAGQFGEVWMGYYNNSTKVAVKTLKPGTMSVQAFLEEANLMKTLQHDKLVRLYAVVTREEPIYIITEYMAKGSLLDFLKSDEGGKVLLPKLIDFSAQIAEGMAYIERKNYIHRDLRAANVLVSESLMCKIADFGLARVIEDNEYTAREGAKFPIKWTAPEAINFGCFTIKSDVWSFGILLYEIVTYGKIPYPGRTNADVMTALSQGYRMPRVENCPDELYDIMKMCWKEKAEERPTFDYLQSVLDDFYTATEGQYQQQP

CC1(C)SSC[C@@H](C(=O)N[C@@H](CCCCN)C(=O)N[C@@H](CCCN=C(N)N)C(N)=O)NC(=O)[C@H](Cc2ccccc2)NC(=O)[C@H](CO)NC(=O)CNC(=O)[C@H](Cc2cc(I)c(O)c(I)c2)NC(=O)[C@@H]1NC(=O)[C@@H](N)Cc1ccc(O)cc1 and CC1(C)SSC[C@@H](C(=O)N[C@@H](CCCCN)C(=O)N[C@@H](CCCNC(=N)N)C(N)=O)NC(=O)[C@H](Cc2ccccc2)NC(=O)[C@H](CO)NC(=O)CNC(=O)[C@H](Cc2ccc(O)c(I)c2)NC(=O)[C@@H]1NC(=O)[C@@H](N)Cc1ccc(O)cc1 cannot be ordered by IC50: > 800 µM for the first, > 800 µM for the second.

molecular target: Tyrosine-protein kinase Lck (Homo sapiens, UniProt P06239); assay: Inhibition of p56 Lck kinase against 100 uM cdc2 substrate; details: not given
Sequence (P06239 whole entry): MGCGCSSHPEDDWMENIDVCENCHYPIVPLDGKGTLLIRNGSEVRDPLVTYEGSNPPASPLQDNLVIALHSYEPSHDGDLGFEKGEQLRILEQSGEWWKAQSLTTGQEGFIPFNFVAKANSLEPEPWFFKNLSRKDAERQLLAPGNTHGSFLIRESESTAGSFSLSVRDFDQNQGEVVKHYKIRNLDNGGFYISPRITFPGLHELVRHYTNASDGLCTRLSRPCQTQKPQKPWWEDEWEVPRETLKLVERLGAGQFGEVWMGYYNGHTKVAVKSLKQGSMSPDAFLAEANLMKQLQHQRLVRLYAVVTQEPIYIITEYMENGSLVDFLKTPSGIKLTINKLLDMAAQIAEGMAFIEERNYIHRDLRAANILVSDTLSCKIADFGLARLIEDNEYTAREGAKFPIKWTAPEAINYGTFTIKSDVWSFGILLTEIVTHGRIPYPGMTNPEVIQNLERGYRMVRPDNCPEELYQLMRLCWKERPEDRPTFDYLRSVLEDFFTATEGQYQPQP

Compared with C[C@@H](c1ccc2ccccc2c1)[C@@H]1NC(=O)[C@H](NC(=O)[C@@H](N)Cc2ccc(O)cc2)C(C)(C)SSC[C@@H](C(=O)N[C@@H](CCCCN)C(=O)N[C@@H](CCCNC(=N)N)C(N)=O)NC(=O)[C@H](Cc2ccccc2)NC(=O)[C@H](CO)NC(=O)CNC1=O, C[C@H](c1ccc2ccccc2c1)[C@H]1NC(=O)[C@H](NC(=O)[C@@H](N)Cc2ccc(O)cc2)C(C)(C)SSC[C@@H](C(=O)N[C@@H](CCCCN)C(=O)N[C@@H](CCCNC(=N)N)C(N)=O)NC(=O)[C@H](Cc2ccccc2)NC(=O)[C@H](CO)NC(=O)CNC1=O is 1.8-fold higher in IC50: 260 µM for the first, 470 µM for the second.

C[C@H](c1ccc2ccccc2c1)[C@@H]1NC(=O)[C@H](NC(=O)[C@@H](N)Cc2ccc(O)cc2)C(C)(C)SSC[C@@H](C(=O)N[C@@H](CCCCN)C(=O)N[C@@H](CCCNC(=N)N)C(N)=O)NC(=O)[C@H](Cc2ccccc2)NC(=O)[C@H](CO)NC(=O)CNC1=O and C[C@@H](c1ccc2ccccc2c1)[C@H]1NC(=O)[C@H](NC(=O)[C@@H](N)Cc2ccc(O)cc2)C(C)(C)SSC[C@@H](C(=O)N[C@@H](CCCCN)C(=O)N[C@@H](CCCNC(=N)N)C(N)=O)NC(=O)[C@H](Cc2ccccc2)NC(=O)[C@H](CO)NC(=O)CNC1=O are within 1.5-fold of each other in IC50: 220 µM for the first, 260 µM for the second.

CC1(C)SSC[C@@H](C(=O)N[C@@H](CCCCN)C(=O)N[C@@H](CCCN=C(N)N)C(N)=O)NC(=O)[C@H](Cc2ccccc2)NC(=O)[C@H](CO)NC(=O)CNC(=O)[C@H](Cc2cc(I)c(O)c(I)c2)NC(=O)[C@@H]1NC(=O)[C@@H](N)Cc1ccc(O)cc1 and CC1(C)SSC[C@@H](C(=O)N[C@@H](CCCCN)C(=O)N[C@@H](CCCNC(=N)N)C(N)=O)NC(=O)[C@H](Cc2ccccc2)NC(=O)[C@H](CO)NC(=O)CNC(=O)[C@H](Cc2ccc(O)c(I)c2)NC(=O)[C@@H]1NC(=O)[C@@H](N)Cc1ccc(O)cc1 are the same in IC50: 11 µM for the first, 11 µM for the second.

molecular target: Proto-oncogene tyrosine-protein kinase Src (Homo sapiens, UniProt P12931); assay: Inhibition of c-Src tyrosine kinase.; details: not given

CC1(C)SSC[C@@H](C(=O)N[C@@H](CCCCN)C(N)=O)NC(=O)[C@H](Cc2ccccc2)NC(=O)[C@H](CO)NC(=O)CNC(=O)[C@H](Cc2ccc(O)cc2)NC(=O)[C@H]1NC(=O)[C@@H](N)Cc1ccc(O)cc1 and CC1(C)SSC[C@@H](C(=O)N[C@@H](CCCNC(=N)N)C(N)=O)NC(=O)[C@H](Cc2ccccc2)NC(=O)[C@H](CO)NC(=O)CNC(=O)[C@H](Cc2ccc(O)cc2)NC(=O)[C@H]1NC(=O)[C@@H](N)Cc1ccc(O)cc1 are within 1.5-fold of each other in IC50: 6.7 µM for the first, 4.5 µM for the second.

Compared with CC1(C)SSC[C@@H](C(=O)N[C@@H](CCCNC(=N)N)C(N)=O)NC(=O)[C@H](Cc2ccccc2)NC(=O)[C@H](CO)NC(=O)CNC(=O)[C@H](Cc2ccc3ccccc3c2)NC(=O)[C@@H]1NC(=O)[C@@H](N)Cc1ccc(O)cc1, CC1(C)SSC[C@@H](C(=O)N[C@@H](CCCCN)C(=O)N[C@@H](CCCNC(=N)N)C(N)=O)NC(=O)[C@H](Cc2ccccc2)NC(=O)[C@H](CO)NC(=O)CNC(=O)[C@H](Cc2ccc(O)cc2)NC(=O)[C@H]1NC(=O)[C@@H](N)Cc1ccc(O)cc1 is 2.8-fold lower in IC50: 3.3 µM for the first, 1.2 µM for the second.

Compared with CC(C)(S)[C@H](NC(=O)[C@@H](N)Cc1ccc(O)cc1)C(=O)N[C@@H](Cc1ccc2ccccc2c1)C(=O)NCC(=O)N[C@@H](CO)C(=O)N[C@@H](Cc1ccccc1)C(=O)N[C@@H](CS)C(=O)N[C@@H](CCCCN)C(=O)N[C@@H](CCCCN)C(N)=O, CC(C)(S)[C@H](NC(=O)[C@@H](N)Cc1ccc(O)cc1)C(=O)N[C@@H](Cc1ccc(O)cc1)C(=O)NCC(=O)N[C@@H](CO)C(=O)N[C@@H](Cc1ccccc1)C(=O)N[C@@H](CS)C(=O)N[C@@H](CCCCN)C(=O)N[C@@H](CCCCN)C(N)=O is 2-fold higher in IC50: 2.7 µM for the first, 5.3 µM for the second.

First: CC(=O)N[C@@H]1C(=O)N[C@@H](Cc2ccc(O)cc2)C(=O)NCC(=O)N[C@@H](CO)C(=O)N[C@@H](Cc2ccccc2)C(=O)N[C@H](C(=O)N[C@@H](CCCCN)C(=O)N[C@@H](CCCN=C(N)N)C(N)=O)CSSC1(C)C
Second: CC(=O)N[C@@H]1C(=O)N[C@@H](Cc2ccc(O)cc2)C(=O)NCC(=O)N[C@@H](CO)C(=O)N[C@@H](Cc2ccccc2)C(=O)N[C@H](C(=O)N[C@@H](CCCCN)C(=O)N[C@@H](CCCCN)C(N)=O)CSSC1(C)C
The IC50 of the first is 1.8-fold lower: 11 µM for the first, 20 µM for the second. The first is the more potent here.

Going from CC(=O)N[C@@H](Cc1ccc(O)cc1)C(=O)N[C@@H]1C(=O)N[C@@H](Cc2ccc(O)cc2)C(=O)NCC(=O)N[C@@H](CO)C(=O)N[C@@H](Cc2ccccc2)C(=O)N[C@H](C(=O)N[C@@H](CCCCN)C(=O)N[C@@H](CCCCN)C(N)=O)CSSC1(C)C to CC(=O)N[C@@H](Cc1ccc(O)cc1)C(=O)N[C@@H]1C(=O)N[C@@H](Cc2ccc(O)cc2)C(=O)NCC(=O)N[C@@H](CO)C(=O)N[C@@H](Cc2ccccc2)C(=O)N[C@H](C(=O)N[C@@H](CCCCN)C(=O)N[C@@H](CCCN=C(N)N)C(N)=O)CSSC1(C)C, the IC50 falls from 26 µM to 6.5 µM (4-fold). The second is the more potent here.

First: CC[C@H](C)[C@@H]1NC(=O)[C@@H](N)CSSC[C@@H](C(=O)N[C@@H](CCCCN)C(=O)N[C@@H](CCCCN)C(=O)O)NC(=O)[C@H](Cc2ccccc2)NC(=O)[C@H](CO)NC(=O)CNC(=O)[C@H](Cc2ccc(O)cc2)NC1=O
Second: CC1(C)SSC[C@@H](C(=O)N[C@@H](CCCCN)C(=O)N[C@@H](CCCCN)C(N)=O)NC(=O)[C@H](Cc2ccccc2)NC(=O)[C@H](CO)NC(=O)CNC(=O)[C@H](Cc2ccc(O)cc2)NC(=O)[C@H]1N
The IC50 of the first is 5.3-fold lower: 2.7 µM for the first, 14.4 µM for the second. The first is the more potent here.

Compared with CC[C@H](C)[C@H](NC(=O)[C@@H](N)CS)C(=O)N[C@@H](Cc1ccc(O)cc1)C(=O)NCC(=O)N[C@@H](CO)C(=O)N[C@@H](Cc1ccccc1)C(=O)N[C@@H](CS)C(=O)N[C@@H](CCCCN)C(=O)N[C@@H](CCCCN)C(N)=O, C[C@H]1NC(=O)[C@H](Cc2ccc(O)cc2)NC(=O)[C@@H](NC(=O)[C@@H](N)Cc2ccc(O)cc2)C(C)(C)SSC[C@@H](C(=O)N[C@@H](CCCCN)C(=O)N[C@@H](CCCCN)C(N)=O)NC(=O)[C@H](Cc2ccccc2)NC(=O)[C@H](CO)NC1=O is 2.6-fold higher in IC50: 6.9 µM for the first, 18 µM for the second. The first is the more potent here.

CC1(C)SSC[C@@H](C(=O)N[C@@H](CCCCN)C(=O)N[C@@H](CCCN=C(N)N)C(N)=O)NC(=O)[C@H](Cc2ccccc2)NC(=O)[C@H](CO)NC(=O)CNC(=O)[C@H](Cc2ccc(O)cc2)NC(=O)[C@H]1N gave an IC50 of 20 µM.

test system: CC[C@H](C)[C@H](NC(=O)[C@@H](N)Cc1ccc(O)cc1)C(=O)N[C@@H](Cc1ccc(O)cc1)C(=O)NCC(=O)N[C@@H](CO)C(=O)N[C@@H](Cc1ccccc1)C(=O)N[C@@H](CCCCN)C(N)=O; assay: Inhibition of c-Src tyrosine kinase against 55 uM YIYGSFK-NH2 substrate; details: Homo sapiens

“Proto-oncogene tyrosine-protein kinase Src (Homo sapiens) (from UniProt P12931)” showed a Km of 55 µM.
